# Entries after “also recorded” stand apart in the source; their conditions may differ.
# How the values were obtained:
# [1] = test system: C57B mice carrying full-thickness skin wounds; test: Effect of systemic Aza-dC treatment (injection) on wound healing and hair follicle regeneration; assay type: in vivo
# Description: Determining the Effect of Systemic Aza-dC Treatment on Wound Healing and Regeneration:
# The dermis was fixed in acetone overnight.
# [2] = test system: C57B mice carrying full-thickness skin wounds; test: Effect of topical Aza-dC treatment on wound healing and hair follicle regeneration; assay type: in vivo; settings: for hair follicle (HF) neogenesis compared to the vehicle control / hair follicle regeneration: topical; for hair follicle (HF) neogenesis compared to the vehicle control: once a day for 2 consecutive days (SD0 & SD1); for hair follicle regeneration: once a day for 5 consecutive days
# Description: Determining the Effect of Topical Aza-dC Treatment on Wound Healing and Regeneration: […]
structure (smiles),measurement,setting,value
"Nc1ncn([C@H]2C[C@H](O)[C@@H](CO)O2)c(=O)n1 [Aza-dC, 5-aza-2′-deoxycytidine]",regeneration of hair follicles in healed wounds,"[1]; injection, 30 μg per gram body weight once a day for 5 consecutive days (SD0 to SD4)",greatly inhibited
same,hair follicle regeneration,[1]; single injection of 30 μg per gram body weight on SD0,no effect
same,hair follicle regeneration,[1]; single injection of 30 μg per gram body weight on SD1,inhibition on hair follicle regeneration; also recorded: greatly inhibited
same,inhibitory effect on wound-induced hair follicle regeneration,"[2]; topical application, unlike systemic treatment",little inhibitory effect
same,stimulatory effect on regeneration,[2]; topical treatment extended to 5 days (SD0 to SD4),diminished
same,hair follicle (HF) neogenesis compared to the vehicle control,[2]; all doses tested,greatly enhanced
same,hair follicle (HF) neogenesis compared to the vehicle control,[2]; highest tested dose 10 μg,strongest enhancement
same,hair follicle regeneration,[2]; 1 μg,little effect
same,hair follicle regeneration,[2]; 5 μg,little effect
same,hair follicle regeneration,[2]; 10 μg,still enhanced
